Measurements reported in patent US9383374B2, “Methods to determine susceptibility to treatment with leukotriene modifiers” (NATIONAL JEWISH HEALTH, priority 2008, dated 2016).

Test system: children with physician-diagnosed asthma
Experiment: Randomized placebo-controlled study of daily montelukast on LTE4-related albuterol usage in schoolchildren with asthma
Assay type: in vivo, human
Conditions: for Change in Albuterol Usage Per IQR Increase in LTE4, Relative difference (treatment vs baseline interval) / Change in Albuterol Usage Per IQR Increase in LTE4, Treatment Interval: montelukast group
Excerpt: Twenty-eight children, aged 6 to 15, who had physician-diagnosed asthma were followed over a 5-month period (Nov. 15, 2005 to Apr. 15, 2006). Children were excluded from the study if they were already receiving montelukast. Many of the children are classified as urban poor. The children attended the same school.
After an initial two and a half month period (baseline interval), children were randomized to receive daily montelukast (montelukast group) or placebo (placebo group) for the final two and a half months of the study (treatment interval). Study medication and placebo were administered in a single-blinded fashion by school nurses or study personnel on school days and by parents (who were blinded) on non-school-days. Children were otherwise followed by their regular physicians who were free to adjust medications as needed (these medication changes were recorded and controlled for in the statistical analysis).
Each child was given a Doser (Meditrak, Hudson, M S) for use at school throughout the 5-month period. The Doser is an electronic counter that records the total number of (albuterol) activations in each 24-hour period. At study initiation, parents completed a questionnaire describing baseline demographic and asthma severity characteristics. School nurses recorded all other medication changes during the study.
Sixteen urine samples were collected from each child on 8 consecutive schooldays during the baseline interval and 8 consecutive schooldays during the treatment interval. Urine was collected at approximately the same time each day (10:00 AM to 12:00 PM). Collection was staggered in groups of 10 children so that urine monitoring occurred daily throughout the 5 months of the study.
Baseline model: A Poisson regression model employing generalized estimating equations (GEE) (Dobson A J. An introduction to generalized linear models, 2nd edition, Chapman & Hall/CRC 2001) was used to determine the strength of association between albuterol medication use (modeled as the outcome) and LTE4 levels, at various lag times (in days) between the variables. An indicator for Friday (=1 if response was on Friday, =0 otherwise) was included because children had regular exercise activities from Monday through Thursday, but not on Friday. […] The same day and up to a 4-day lag of LTE4 was tested for, in separate models.
Experiment model: Daily albuterol use was modeled as a function of LTE4, group (montelukast and placebo), interval (baseline and treatment), and all interactions of these variables, using Poisson regression and employing GEE. Using the baseline model as a guide, 3-day moving averages of LTE4 (days 0-2 and 1-3 prior to current day) were used. Other covariates in the model included daily indicators for Friday, prednisone use, special exercise days during the treatment interval, and interval-level indictors of ICS and LABA use.
Effect modifier models: These models were fit for the subjects randomized to montelukast only. The model had LTE4, interval, the effect modifier of interest, and all interactions of these variables. Otherwise, the model was similar to the ‘Experiment model’ described above. The effect modifiers tested included gender, ICS and LABA use, mean LTE4, mean FENO, height, mean cotinine, and mean LTE4 to FENO ratio.
The interquartile range (IQR) for LTE4 was used to standardize slope estimates; this statistic was determined by first calculating the IQR for each subject, and then taking the median across subjects. For all models described above, a first order autoregressive working covariance structure was used to model repeated measures within subjects over time. SAS software, version 9.1 (PROC GENMOD) was used to fit the data to the models described above. […]

[1] = Group 1 meds: No Meds or ICS, 1-3 day moving average
[2] = Group 2 meds: ICS and LABA, 1-3 day moving average
[3] = LTE4:FENO Ratio 1st quartile estimate
[4] = LTE4:FENO Ratio 3rd quartile estimate
[5] = mean FENO 1st quartile estimate
[6] = mean FENO 3rd quartile estimate
[7] = mean LTE4 1st quartile estimate
[8] = mean LTE4 3rd quartile estimate
[9] = mean urine Cotinine 1st quartile estimate
[10] = mean urine Cotinine 3rd quartile estimate

CC(C)(O)c1ccccc1CC[C@@H](SCC1(CC(=O)O)CC1)c1cccc(/C=C/c2ccc3ccc(Cl)cc3n2)c1 [Montelukast, montelukast]
Change in Albuterol Usage per IQR of LTE4, Relative Diff. (Female (Group 2 gender)): −26.7%
Change in Albuterol Usage per IQR of LTE4, Treatment interval (Female (Group 2 gender)): −11.5%
Change in Albuterol Usage per IQR of LTE4, Relative Diff. [1]: −22.0%
Change in Albuterol Usage per IQR of LTE4, Treatment interval [1]: −10.5%
Change in Albuterol Usage per IQR of LTE4, Relative Diff. [2]: −6.6%
Change in Albuterol Usage per IQR of LTE4, Treatment interval [2]: −1.0%
Change in Albuterol Usage per IQR of LTE4, Relative Diff. (Height 1st quartile estimate): −16.4%
Change in Albuterol Usage per IQR of LTE4, Treatment interval (Height 1st quartile estimate): −2.4%
Change in Albuterol Usage per IQR of LTE4, Relative Diff. (Height 3rd quartile estimate): −16.4%
Change in Albuterol Usage per IQR of LTE4, Treatment interval (Height 3rd quartile estimate): −0.3%
Change in Albuterol Usage per IQR of LTE4, Relative Diff. [3]: 1.8%
Change in Albuterol Usage per IQR of LTE4, Treatment interval [3]: −0.8%
Change in Albuterol Usage per IQR of LTE4, Relative Diff. [4]: −17.6%
Change in Albuterol Usage per IQR of LTE4, Treatment interval [4]: −1.3%
Change in Albuterol Usage per IQR of LTE4, Relative Diff. (Male (Group 1 gender)): −7.9%
Change in Albuterol Usage per IQR of LTE4, Treatment interval (Male (Group 1 gender)): −0.5%
Change in Albuterol Usage per IQR of LTE4, Relative Diff. [5]: −10.4%
Change in Albuterol Usage per IQR of LTE4, Treatment interval [5]: −0.1%
Change in Albuterol Usage per IQR of LTE4, Relative Diff. [6]: −0.6%
Change in Albuterol Usage per IQR of LTE4, Treatment interval [6]: −6.4%
Change in Albuterol Usage per IQR of LTE4, Relative Diff. [7]: −13.4%
Change in Albuterol Usage per IQR of LTE4, Treatment interval [7]: −1.5%
Change in Albuterol Usage per IQR of LTE4, Relative Diff. [8]: −10.9%
Change in Albuterol Usage per IQR of LTE4, Treatment interval [8]: −4.8%
Change in Albuterol Usage per IQR of LTE4, Relative Diff. [9]: −8.2%
Change in Albuterol Usage per IQR of LTE4, Treatment interval [9]: −4.0%
Change in Albuterol Usage per IQR of LTE4, Relative Diff. [10]: −6.6%
Change in Albuterol Usage per IQR of LTE4, Treatment interval [10]: −3.6%
Change in Albuterol Usage Per IQR Increase in LTE4, Relative difference (treatment vs baseline interval) (Lag 0-2): −10.8%
Change in Albuterol Usage Per IQR Increase in LTE4, Treatment Interval (Lag 0-2 (Day 0-2 moving average of LTE4)): −3.0%
Change in Albuterol Usage Per IQR Increase in LTE4, Relative difference (treatment vs baseline interval) (Lag 1-3): −13.0%
Change in Albuterol Usage Per IQR Increase in LTE4, Treatment Interval (Lag 1-3 (Day 1-3 moving average of LTE4)): −3.2%
